The test system of the experiment is P335 leukemia ip, BDF1 mice, survival T/C %. In words: NCI In Vivo Anticancer Drug Screen. Data for tumor model P335 Leukemia (intraperitoneal) in B6D2F1 (BDF1) mice. Conditions: endpoint: mean survival time, higher = longer survival. As to the method:
The antitumor activity of compounds was measured in mice bearing transplantable tumors. Survival or tumor size were measured and the results are expressed as the measurement made in the treated group (T) divided by the measurement made in the vehicle treated control group (C). The tumor model used in this assay is P335 Leukemia (intraperitoneal) in B6D2F1 (BDF1) mice

The mark [1] stands for this setting: dose: 0.5 mg/kg/injection, schedule: Q01DX Z (sc), vehicle: steriod suspending solution.
Where [2] appears, read: dose: 1.0 mg/kg/injection, schedule: Q01DX Z (sc), vehicle: steriod suspending solution.
Setting [3] is: dose: 2.0 mg/kg/injection, schedule: Q01DX Z (sc), vehicle: steriod suspending solution.
Where [4] appears, read: dose: 4.0 mg/kg/injection, schedule: Q01DX Z (sc), vehicle: steriod suspending solution.
Where [5] appears, read: dose: 8.0 mg/kg/injection, schedule: Q01DX Z (sc), vehicle: steriod suspending solution.
Setting [6] is: dose: 16.0 mg/kg/injection, schedule: Q01DX Z (sc), vehicle: steriod suspending solution.
Setting [7] is: dose: 31.0 mg/kg/injection, schedule: Q01DX Z (sc), vehicle: steriod suspending solution.
[8] abbreviates: dose: 62.5 mg/kg/injection, schedule: Q01DX Z (sc), vehicle: steriod suspending solution.
[9] abbreviates: dose: 125.0 mg/kg/injection, schedule: Q01DX Z (sc), vehicle: steriod suspending solution.
[10] abbreviates: dose: 250.0 mg/kg/injection, schedule: Q01DX Z (sc), vehicle: steriod suspending solution.
Setting [11] is: dose: 500.0 mg/kg/injection, schedule: Q01DX Z (sc), vehicle: steriod suspending solution.
Setting [12] is: dose: 1.6 mg/kg/injection, schedule: Q01DX Z (ip), vehicle: carboxymethylcellulose (CMC).
Where [13] appears, read: dose: 3.1 mg/kg/injection, schedule: Q01DX Z (ip), vehicle: carboxymethylcellulose (CMC).
[14] abbreviates: dose: 0.31 mg/kg/injection, schedule: Q01DX Z (ip), vehicle: carboxymethylcellulose (CMC).
Setting [15] is: dose: 1.25 mg/kg/injection, schedule: Q01DX Z (ip), vehicle: carboxymethylcellulose (CMC).
Where [16] appears, read: dose: 8.0 mg/kg/injection, schedule: Q01DX Z (ip), vehicle: carboxymethylcellulose (CMC).
[17] abbreviates: dose: 16.0 mg/kg/injection, schedule: Q01DX Z (ip), vehicle: carboxymethylcellulose (CMC).

Several values for one entry are separate records, joined by “and”; a condition that tells them apart may be missing. Equal values may be shown once. Toxic doses and inconclusive results are not listed.

For the compound `CC[C@H](c1ccc(O)cc1)[C@@H](CC)c1ccc(O)cc1`, the T/C was 103 % of control under setting [1]; 108 % of control under setting [2]; 115 % of control and 116 % of control under setting [3]; 114 % of control under setting [4]; 122 % of control under setting [5]; 111 % of control under setting [6]. Also, the T/C was 105 % of control under setting [7]; 103 % of control and 111 % of control under setting [8]; 103 % of control under setting [9]; 106 % of control under setting [10]; 97 % of control under setting [11].

Regarding `O=CN(O)CC(=O)O`, the T/C reads like this: (dose: 125.0 mg/kg/injection, schedule: Q01DX Z (ip), vehicle: none) 87 % of control; (dose: 250.0 mg/kg/injection, schedule: Q01DX Z (ip), vehicle: none) 95 % of control; (dose: 500.0 mg/kg/injection, schedule: Q01DX Z (ip), vehicle: carboxymethylcellulose (CMC)) 109 % of control; (dose: 500.0 mg/kg/injection, schedule: Q01DX Z (ip), vehicle: none) 89 % of control; (dose: 1000.0 mg/kg/injection, schedule: Q01DX Z (ip), vehicle: carboxymethylcellulose (CMC)) 93 % of control.

With `Cn1c(N)nc2nc[nH]c2c1=S`, the T/C under setting [12] is 94 % of control; the T/C under setting [13] is 94 % of control; the T/C (dose: 6.3 mg/kg/injection, schedule: Q01DX Z (ip), vehicle: carboxymethylcellulose (CMC)) is 92 % of control.

`C=CC(CN1CC1)OC(C)=O` (configuration not stated): the T/C is, setting by setting: (dose: 0.47 mg/kg/injection, schedule: Q01DX Z (ip), vehicle: carboxymethylcellulose (CMC)) 106 % of control; (dose: 0.95 mg/kg/injection, schedule: Q01DX Z (ip), vehicle: carboxymethylcellulose (CMC)) 110 % of control; (dose: 1.9 mg/kg/injection, schedule: Q01DX Z (ip), vehicle: carboxymethylcellulose (CMC)) 103 % of control.

With `S=c1nc[nH]c2nc[nH]c12`, the T/C was 116 % of control (dose: 37.5 mg/kg/injection, schedule: Q01DX Z (ip), vehicle: other); 114 % of control (dose: 75.0 mg/kg/injection, schedule: Q01DX Z (ip), vehicle: other); 122 % of control (dose: 300.0 mg/kg/injection, schedule: Q01DX Z (ip), vehicle: other).

Regarding `Cn1cnc([N+](=O)[O-])c1Sc1nc(N)nc2nc[nH]c12`, the T/C (dose: 0.25 mg/kg/injection, schedule: Q01DX Z (ip), vehicle: carboxymethylcellulose (CMC)) is 93 % of control.

For `Nc1nc(=S)c2ncn(C3OC(CO)C(O)C3O)c2[nH]1` (configuration not stated), the T/C runs as follows: (dose: 0.16 mg/kg/injection, schedule: Q01DX Z (ip), vehicle: carboxymethylcellulose (CMC)) 93 % of control; under setting [14], 117 % of control; (dose: 0.63 mg/kg/injection, schedule: Q01DX Z (ip), vehicle: carboxymethylcellulose (CMC)) 90 % of control; under setting [15], 90 % of control.

Regarding `C[C@]12CCC(=O)C=C1CC[C@@H]1[C@@H]2CC[C@@]2(C)[C@H]1CC[C@]2(C)O`, the T/C is, setting by setting: under setting [1], 117 % of control; under setting [2], 96 % of control; under setting [3], 121 % of control; under setting [4], 116 % of control; under setting [5], 118 % of control; under setting [6], 116 % of control. For the same compound, the T/C is, setting by setting: under setting [7], 116 % of control; under setting [8], 106 % of control and 111 % of control; under setting [9], 106 % of control; under setting [10], 109 % of control; under setting [11], 100 % of control.

In the case of `[I][Hg][CH2]C1COC([CH2][Hg][I])CO1` (configuration not stated), the T/C (dose: 3.75 mg/kg/injection, schedule: Q01DX Z (ip), vehicle: carboxymethylcellulose (CMC)) was 110 % of control.

With `CCN(CC)c1ccc2cc3ccc(=[N+](CC)CC)cc-3oc2c1`, the T/C is 87 % of control under setting [14]; 97 % of control and 98 % of control (dose: 0.62 mg/kg/injection, schedule: Q01DX Z (ip), vehicle: carboxymethylcellulose (CMC)); 108 % of control and 123 % of control under setting [15].

In the case of `C[C@@H]1C[C@@H]([C@H](O)CC2CC(=O)NC(=O)C2)C(=O)[C@@H](C)C1`, the T/C is 113 % of control (dose: 0.78 mg/kg/injection, schedule: Q01DX Z (ip), vehicle: water); 106 % of control and 112 % of control (dose: 1.56 mg/kg/injection, schedule: Q01DX Z (ip), vehicle: water); 89 % of control (dose: 3.12 mg/kg/injection, schedule: Q01DX Z (ip), vehicle: water); 100 % of control (dose: 6.25 mg/kg/injection, schedule: Q01DX Z (ip), vehicle: water); 106 % of control (dose: 12.5 mg/kg/injection, schedule: Q01DX Z (ip), vehicle: water); 100 % of control (dose: 25.0 mg/kg/injection, schedule: Q01DX Z (ip), vehicle: water). The T/C (dose: 50.0 mg/kg/injection, schedule: Q01DX Z (ip), vehicle: water) is 111 % of control.

Consider `CC(=O)N(C)C`, for which the T/C reads like this: (dose: 250.0 mg/kg/injection, schedule: Q01DX Z (ip), vehicle: saline) 95 % of control; (dose: 500.0 mg/kg/injection, schedule: Q01DX Z (ip), vehicle: saline) 110 % of control; (dose: 1000.0 mg/kg/injection, schedule: Q01DX Z (ip), vehicle: saline) 92 % of control; (dose: 2000.0 mg/kg/injection, schedule: Q01DX Z (ip), vehicle: saline) 90 % of control.

For `c1ccc(CNc2ncnc3[nH]ncc23)cc1`, the T/C runs as follows: (dose: 4.0 mg/kg/injection, schedule: Q01DX Z (ip), vehicle: carboxymethylcellulose (CMC)) 89 % of control; under setting [16], 90 % of control; under setting [17], 95 % of control; (dose: 31.25 mg/kg/injection, schedule: Q01DX Z (ip), vehicle: carboxymethylcellulose (CMC)) 101 % of control.

In the case of `O=C(Nc1ccc(C2=NCCN2)cc1)c1ccc(C(=O)Nc2ccc(C3=NCCN3)cc2)c(Cl)c1`, the T/C reads like this: (dose: 3.75 mg/kg/injection, schedule: Q01DX Z (ip), vehicle: water) 92 % of control; (dose: 7.5 mg/kg/injection, schedule: Q01DX Z (ip), vehicle: water) 120 % of control; (dose: 15.0 mg/kg/injection, schedule: Q01DX Z (ip), vehicle: water) 157 % of control; (dose: 30.0 mg/kg/injection, schedule: Q01DX Z (ip), vehicle: water) 156 % of control and 206 % of control; (dose: 60.0 mg/kg/injection, schedule: Q01DX Z (ip), vehicle: water) 86 % of control.

As for `C[n+]1c2ccccc2nc2c(N)cc(N)cc21`, the T/C under setting [12] is 94 % of control; the T/C under setting [13] is 86 % of control; the T/C (dose: 6.2 mg/kg/injection, schedule: Q01DX Z (ip), vehicle: carboxymethylcellulose (CMC)) is 97 % of control; the T/C (dose: 6.25 mg/kg/injection, schedule: Q01DX Z (ip), vehicle: carboxymethylcellulose (CMC)) is 124 % of control; the T/C (dose: 12.5 mg/kg/injection, schedule: Q01DX Z (ip), vehicle: carboxymethylcellulose (CMC)) is 100 % of control and 114 % of control; the T/C (dose: 25.0 mg/kg/injection, schedule: Q01DX Z (ip), vehicle: carboxymethylcellulose (CMC)) was 120 % of control.

As to `NC(N)=Nc1nc2ccccc2o1`, the T/C is, setting by setting: (dose: 2.0 mg/kg/injection, schedule: Q01DX Z (ip), vehicle: carboxymethylcellulose (CMC)) 92 % of control; under setting [16], 90 % of control; under setting [17], 90 % of control; (dose: 31.0 mg/kg/injection, schedule: Q01DX Z (ip), vehicle: carboxymethylcellulose (CMC)) 94 % of control; (dose: 63.0 mg/kg/injection, schedule: Q01DX Z (ip), vehicle: carboxymethylcellulose (CMC)) 94 % of control; (dose: 125.0 mg/kg/injection, schedule: Q01DX Z (ip), vehicle: carboxymethylcellulose (CMC)) 86 % of control.

For the origin of these results see PubChem BioAssay AID224 (DTP/NCI, 2004).
